Tests used:
transglutaminase = assay: Inhibiting effect on transglutaminase activity; format: biochemical
[1] = system: flank organs of male intact Golden Syrian hamsters; assay: Hamster flank organ hair growth (hair mass) after topical application; format: in vivo; details: for Flank Organ Hair Mass, Treated: topical 10-25 μl once a day; for Flank Organ Hair Mass, Treated / % Inhibition of hair mass (+SEM): 18 days; for % Inhibition of hair mass (+SEM): treated organ vs vehicle-treated organ of same animal; for Hair shaft structure, microscopic examination: hair shafts harvested from flank organs
Protocol: A vehicle or carrier was prepared having the following composition:
The compound BBD was mixed with separate portions of the foregoing vehicle to provide specimens containing 1,2,5,10, and 20% by weight of the inhibitor respectively.
Five groups (seven or eight animals in each group) of male intact Golden Syrian hamsters were provided. These animals are considered acceptable models for human beard hair growth in that they display oval shaped flank organs, one on each side, each about 8 mm. in major diameter, which grow thick black and coarse hair similar to human beard hair. These organs produce hair in response to androgens in the hamster. The flank organs of each hamster were depilated by applying a thioglycolate-based chemical depilatory (Surgex), and to one organ of each animal was applied 10-25 μl. of vehicle alone once a day, while to the other organ of each animal was applied an equal amount of vehicle containing inhibitor. After 2 1/2 weeks of such applications (five days a week for a total of eighteen days), the flank organs were shaved and the amount of recovered hair (hair mass) from each was weighed. The extent of reduction in hair growth by the inhibitor was expressed as the percent decrease in hair mass on the organ treated with inhibitor as compared to the organ treated with vehicle alone. As a control, one additional control group of eight animals had both flank organs of each animal treated with vehicle alone.

With `O=C(N[C@@H](Cc1ccccc1)C(=O)NCC1CC(Br)=NO1)OCc1ccccc1` (some centres unmarked) [BBD, 3-bromo-5-(N-benzyloxycarbonyl-1-phenylalanamido-methyl)-4,5-dihydroisoxazole] as the compound, how does the “Inhibiting effect on transglutaminase activity” value (transglutaminase) read?
Its value is “dose related”.

And the “Flank Organ Hair Mass, Treated” value ([1]; 1% BBD in vehicle)?
Its value is 2.614 ± .19 mg ± SEM.

What about the “% Inhibition of hair mass (+SEM)” value ([1]; 1% BBD) of the same compound?
Its value is 19.54 ± 6.07%.

And the “Length of the hair, visual inspection during treatment” value ([1]; 1-20% BBD, topical, hamster flank organ)?
Its value is “decrease in the length of the hair dependent upon the concentration of the inhibitor”.

And the “Flank Organ Hair Mass, Treated” value ([1]; 2% BBD in vehicle)?
Its value is 2.827 ± .23 mg ± SEM.

And the “% Inhibition of hair mass (+SEM)” value ([1]; 2% BBD)?
Its value is -3.63 ± 9.91%.

And the “Flank Organ Hair Mass, Treated” value ([1]; 5% BBD in vehicle)?
The value was 2.279 ± .28 mg ± SEM.

What about the “% Inhibition of hair mass (+SEM)” value ([1]; 5% BBD) of the same compound?
Its value is 22.83 ± 9.62%.

What about the “Hair shaft structure, microscopic examination” value ([1]; 5% and 10% concentrations of BBD) of the same compound?
The value was “less dramatic but visually obvious changes in the medulla of hair shafts”.

What about the “Flank Organ Hair Mass, Treated” value ([1]; 10% BBD in vehicle) of the same compound?
The value was 1.389 ± .12 mg ± SEM.

What about the “% Inhibition of hair mass (+SEM)” value ([1]; 10% BBD) of the same compound?
Its value is 56.08 ± 4.64%.

And the “Flank Organ Hair Mass, Treated” value ([1]; 20% BBD in vehicle)?
Its value is “.333 ± .06 mg ± SEM”.

What about the “% Inhibition of hair mass (+SEM)” value ([1]; 20% BBD) of the same compound?
The value was 87.87 ± 1.54%.

And the “Hair shaft structure, microscopic examination” value ([1]; 20% concentration of BBD)?
Its value is “dramatic deterioration of the hair shaft structure including disorganization of the medulla and cuticle”.

Source: patent publication US5143925A, “Alteration of rate and character of hair growth” (priority 1991, dated 1992)
